In patent US20040235942A1 (priority 2003, published 2004):

Key:
[1] = system: factor VII activity and prothrombin fragment F1+2; details: in vivo; cited from earlier work
[2] = system: patients with idiopathic venous thromboembolism; test: PREVENT trial: composite endpoint of recurrent VTE, major hemorrhage and all-cause mortality; assay type: in vivo, human
Excerpt: (§1) All participants were followed for recurrent VTE, major bleeding events, and all-cause mortality.
(§2) As an index of net clinical benefit, we defined on an a priori basis a composite endpoint of recurrent VTE, major hemorrhage, and all-cause mortality. Incident stroke events were also monitored. These were classified as hemorrhagic or thromboembolic on the basis of clinical records or CT/MRI scanning which were available for all episodes. To avoid double-counting, hemorrhagic strokes were considered as major hemorrhages in analyses using the combined endpoint of recurrent thrombosis, major hemorrhage, and all-cause mortality.
Comparisons between the warfarin and placebo groups in the distributions of continuous variables used Wilcoxon rank sum tests; for categorical variables, comparisons used Chi-square tests. The primary analysis was an intention-to-treat comparison of the difference between time to first confirmed recurrent VTE after randomization in the two treatment arms using a two-sided log-rank test. The method of Kaplan and Meier was used to estimate the probability of recurrence by time within treatment groups. Estimation of the number of patients needed to treat (NNT) to prevent one recurrent event was based on rates at one year. […]

[3] = system: patients with idiopathic venous thromboembolism; test: PREVENT trial: bleeding, mortality, stroke, cancer, myocardial infarction, drug discontinuation; assay type: in vivo, human
Excerpt: as §1
(§3) All index events were confirmed by objective criteria at the central Clinical Coordinating Center based upon venography, compression ultrasound or MRI reports (for deep vein thrombosis) or by ventilation/perfusion scans, angiograms, or chest computed tomography scans (for pulmonary embolism). Idiopathic events were defined as those not occurring within 90 days of surgery, trauma, or a diagnosis of metastatic cancer. […] Every patient gave written informed consent and the study protocol was approved by each institutional review board.
(§4) Randomization was stratified by clinical site, time since index event (≦6 months, >6 months) and by whether the index event was the patient's first ever VTE. All participants were then followed with office visits once every two months that included blinded INR evaluations and dose adjustments. To further ensure blinding, sham dose adjustments were made in the placebo group.
(§5) As PREVENT was specifically designed to evaluate clinically relevant recurrent thromboembolic events, no surveillance for asymptomatic thrombosis was undertaken. Rather, at each visit the occurrence of any incident clinical events since the last visit two months earlier was evaluated. All endpoints were reviewed by a committee of physicians unaware of study drug assignment. The endpoint of recurrent deep vein thrombosis was confirmed if there was a positive venography study, doppler compression ultrasound, or MRI. Events documented by clinical diagnosis alone were not confirmed. […] Major hemorrhage was defined as any bleeding episode that led either to hospitalization or transfusion.
as §2
The method of Kaplan and Meier was used to estimate the probability of recurrence by time within treatment groups. Estimation of the number of patients needed to treat (NNT) to prevent one recurrent event was based on rates at one year. […] The hypothesis of a varying effect of treatment over time was tested in a proportional hazards model including an interaction of treatment with time. Tests and estimates of treatment effects on the composite endpoint used the same methods.

[4] = system: International Normalized Ratio; test: PREVENT trial: blinded INR evaluation (CoaguChek fingerstick); assay type: in vivo, human; details: during follow-up; interquartile range 1.4 to 2.0
Excerpt: During the run-in, at randomization, and throughout follow-up, all INR assessments at each study site were made using specially designed fingerstick devices with an identical thromboplastin [International Sensitivity Index 2.0] (CoaguChek, Roche Diagnostics, Indianapolis, Ind.). These devices were altered electronically to provide a coded study value which was transmitted to the Data Coordinating Center. All dose adjustments were made in a blinded manner using a simple clinical algorithm (Appendix A).
as §4

[5] = system: patients with idiopathic venous thromboembolism; test: PREVENT trial: recurrent venous thromboembolism; assay type: in vivo, human
Excerpt: as §1, §3
The run-in phase was also used to exclude individuals with less than 80 percent compliance.
as §4, §5
Comparisons between the warfarin and placebo groups in the distributions of continuous variables used Wilcoxon rank sum tests; for categorical variables, comparisons used Chi-square tests. The primary analysis was an intention-to-treat comparison of the difference between time to first confirmed recurrent VTE after randomization in the two treatment arms using a two-sided log-rank test. The method of Kaplan and Meier was used to estimate the probability of recurrence by time within treatment groups. Estimation of the number of patients needed to treat (NNT) to prevent one recurrent event was based on rates at one year. We used the proportional hazards model for estimation of the relative hazard of recurrent VTE associated with low-intensity warfarin treatment and obtained confidence intervals from this model. The hypothesis of a varying effect of treatment over time was tested in a proportional hazards model including an interaction of treatment with time. Tests and estimates of treatment effects on the composite endpoint used the same methods.
The primary pre-specified subgroup analysis evaluated the effect of treatment separately in persons with and without either factor V Leiden or the prothrombin mutation. The hypothesis of a different effect of treatment by genetic status was tested in a proportional hazards model including the interaction of treatment with the presence of either factor V Leiden or G20210A prothrombin mutation. Other descriptive comparisons within subgroups used the same methods.

[6] = requires twice daily dosing; cited from earlier work

CC(=O)CC(c1ccccc1)c1c(O)c2ccccc2oc1=O (centres unmarked) [low-intensity warfarin, warfarin]
reducing biochemical markers of coagulation such as factor VII activity and levels of prothrombin fragment F1+2 [1]: effective
Composite Endpoint, Rate ([2]; first VTE, major bleed, or death): 4.1 events per 100 person years
reduction in composite study endpoint of recurrent VTE, major hemorrhage, or death ([2]; versus placebo): 48%
Cancer, Rate ([3]; in vivo): 0.7 events per 100 person years
Deaths, Rate ([3]; in vivo): 0.7 events per 100 person years
Major bleeding, Rate ([3]; in vivo): 0.9 events per 100 person years
Myocardial Infarction, Rate ([3]; in vivo): 0.5 events per 100 person years
confirmed strokes ([3]; in vivo): 1
patients in whom study drug was discontinued before completion of follow-up ([3]; in vivo): 62 patients
major bleeds that were gastrointestinal ([3]; of 5 major bleeds): 3
major bleeds that were hematuria in the setting of renal calculus removal ([3]; of 5 major bleeds): 1
major bleeds that were lower-extremity hematoma ([3]; of 5 major bleeds): 1
major hemorrhage requiring transfusion of packed red blood cells ([3]; patient was receiving full-dose warfarin at the time of the bleed): 1
median INR [4]: 1.7
reduction in risk of recurrent VTE ([5]; analysis by use or non-use of long-term anticoagulation at the time of the recurrent event): 81%
participants with recurrent VTE after cessation of study drug ([5]; in vivo): 7
Recurrent VTE, Rate ([5]; intention-to-treat): 2.6 events per 100 person years
reduction in risk of recurrent VTE ([5]; men): 53%
Recurrent VTE, Rate ([5]; subgroup: Factor V Leiden or Prothrombin Mutation absent): 2.7 events per 100 person years
Recurrent VTE, Rate ([5]; subgroup: Factor V Leiden or Prothrombin Mutation present): 2.2 events per 100 person years
Recurrent VTE, Rate ([5]; subgroup: age 30-44 years): 3.3 events per 100 person years
Recurrent VTE, Rate ([5]; subgroup: age 45-64 years): 1.7 events per 100 person years
Recurrent VTE, Rate ([5]; subgroup: age 65-89 years): 3.9 events per 100 person years
Recurrent VTE, Rate ([5]; subgroup: men): 4.0 events per 100 person years
Recurrent VTE, Rate ([5]; subgroup: women): 1.1 events per 100 person years
risk reduction of recurrent VTE ([5]; those without factor V Leiden or the prothrombin mutation): 58%
Recurrent VTE, Rate ([5]; time after randomization >1 year): 2.5 events per 100 person years
Recurrent VTE, Rate ([5]; time after randomization ≦1 year): 2.7 events per 100 person years
patients needed to be treated to prevent one recurrent event ([5]; treated for one year, based on rates at one year): 14 patients
risk reduction of recurrent VTE ([5]; versus placebo, intention-to-treat): 64%
reduction in risk of recurrent VTE ([5]; women): 80%

CCOC(=O)CN[C@@H](C(=O)N1CC[C@H]1C(=O)NCc1ccc(/C(N)=N\O)cc1)C1CCCCC1 [ximelagatran]
half-life [6]: relatively short
